Several values for one entry are separate records, joined by “and”; a condition that tells them apart may be missing. Equal entries are not always repeated.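 Growth conditions: 96-well plates. Treatment: test compound, 48 hours, 5 concentrations. Analysis: linear interpolation between bracketing concentrations; unreached endpoints set to highest concentration. GI50 = concentration required for 50% inhibition of growth. TGI marks complete inhibition of growth.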
Key:
Assay in all cases: NCI tumour cell line growth inhibition, 48 h
SNB-75 CNS = tested on: SNB-75 CNS
RPMI-8226 leukemia = tested on: RPMI-8226 leukemia
OVCAR-5 ovarian = tested on: OVCAR-5 ovarian
NCI-H460 lung = tested on: NCI-H460 lung
MOLT-4 leukemia = tested on: MOLT-4 leukemia
SN12C renal = tested on: SN12C renal
SK-MEL-2 melanoma = tested on: SK-MEL-2 melanoma
SK-OV-3 ovarian = tested on: SK-OV-3 ovarian
HCT-15 colon = tested on: HCT-15 colon
SNB-19 CNS = tested on: SNB-19 CNS

SMILES | TGI (SNB-75 CNS) | TGI (RPMI-8226 leukemia) | TGI (OVCAR-5 ovarian) | TGI (NCI-H460 lung) | TGI (MOLT-4 leukemia) | TGI (SN12C renal) | TGI (SK-MEL-2 melanoma) | TGI (SK-OV-3 ovarian) | TGI (HCT-15 colon) | TGI (SNB-19 CNS) | GI50 (SNB-75 CNS) | GI50 (RPMI-8226 leukemia) | GI50 (OVCAR-5 ovarian) | GI50 (NCI-H460 lung) | GI50 (MOLT-4 leukemia) | GI50 (SN12C renal) | GI50 (SK-MEL-2 melanoma) | GI50 (SK-OV-3 ovarian) | GI50 (HCT-15 colon) | GI50 (SNB-19 CNS)
COc1cc2ccc(C(=O)O)cc2cc1OC | > 100 µM | > 100 µM | > 100 µM | > 100 µM | > 100 µM | > 100 µM | > 100 µM | > 100 µM | > 100 µM | > 100 µM | – | – | – | – | – | – | – | – | – | –
Nc1ccc(Sc2ccc3c4c2cccc4c(=O)n2c4ccccc4nc32)cc1 | 48.1 µM | 14.3 µM | 46 µM | 14.3 µM | 7.68 µM | 19.7 µM | 65.6 µM | 37.2 µM | 40 µM | > 100 µM | 3.35 µM | 2.5 µM | 14.9 µM | 1.9 µM | 2.57 µM | 2.61 µM | 8.87 µM | 5.63 µM | 3.34 µM | 6.17 µM
COc1cc(C2CC(c3cc(Cl)c(C)cc3O)=NN2c2ccc(S(N)(=O)=O)cc2)cc(OC)c1OC (stereo not given) | 28.3 µM | 14.8 µM | 4.28 µM | 3.87 µM | > 100 µM | 10.3 µM | 12 µM | 11.4 µM | 11.8 µM | 23.9 µM | 2.45 µM | 2.66 µM | 1.87 µM | 2.06 µM | 4.46 µM | 2.97 µM | 3.53 µM | 3.71 µM | 3.28 µM | 4.61 µM
CCOc1c(Cc2ccccc2)c(=O)n2c3ccccc3n3c(=O)n(C)c(=O)c1c23 | 81.2 µM | > 100 µM | > 100 µM | > 100 µM | > 100 µM | > 100 µM | > 100 µM | > 100 µM | > 100 µM | > 100 µM | – | – | – | – | – | – | – | – | – | –
CCN(CC)c1ccc(/C=C2/NC(=O)NC2=O)cc1 | > 100 µM | > 100 µM | > 100 µM | > 100 µM | > 100 µM | > 100 µM | > 31.4 µM | > 100 µM | > 100 µM | > 100 µM | 4.01 µM | 5.34 µM | 10.5 µM | 4.44 µM | 17.6 µM | 11.1 µM | 3.03 µM | 6.84 µM | 3.21 µM | 15.5 µM
COC(=O)C12CC(NC(=O)c3csc([C@@H](C[C@H](C(C)C)N(C)C(=O)[C@@H](NC(=O)[C@H]4CCCCN4C)C(C)C)OC(C)=O)n3)(C1)C2 | > 33.3 µM | > 33.3 µM | > 33.3 µM | > 33.3 µM | > 33.3 µM | > 33.3 µM | – | > 33.3 µM | > 33.3 µM | > 33.3 µM | 0.00333 µM | 0.00131 µM and 0.00333 µM | – | 0.00298 µM and 0.00333 µM | 0.00688 µM and 0.00333 µM | 0.003 µM and 0.00333 µM | 0.00197 µM | 0.00639 µM and 0.00333 µM | 0.0145 µM and 0.00801 µM | 0.0022 µM and 0.00333 µM
CC(C)N(C(=O)C12C3C4C5C3C1(C(=O)N(C(C)C)C(C)C)C5C42)C(C)C (stereo not given) | > 100 µM | > 64.4 µM | > 100 µM | > 100 µM | > 100 µM | > 100 µM | > 100 µM | > 100 µM | > 100 µM | > 100 µM | – | – | – | – | – | – | – | – | – | –
CC[C@@]1(O)C(=O)N(CCN(C)C)Cc2c1cc1n(c2=O)Cc2cc3ccccc3nc2-1 | > 100 µM | > 100 µM | > 100 µM | > 83.1 µM | > 100 µM | > 100 µM | > 100 µM | > 100 µM | > 100 µM | > 100 µM | 17.4 µM | > 43.9 µM | > 100 µM | 1.82 µM | 3.93 µM | 8.85 µM | > 100 µM | > 100 µM | 33.1 µM | > 24.9 µM
CCCCCCCC(=O)O[C@H]1[C@H]2[C@@H](CC1(C)C)C(=O)[C@]13O[C@H]1C(=O)[C@]1(CO1)[C@]23C | 29.4 µM and 53.6 µM | 18.3 µM and 3.34 µM | 28.8 µM and 25.9 µM | 42.6 µM and 12.8 µM | 10.9 µM and 2.68 µM | 12.6 µM and 9.31 µM | 45.5 µM and 8.57 µM | 44.6 µM and 61.9 µM | 8.26 µM and 7.9 µM | 44.9 µM and 45.9 µM | 14.2 µM | 2.95 µM | 15.3 µM | 20 µM | 1.17 µM | – | 22.7 µM | 20.7 µM | – | –
O=C(O)CNCc1c2ccccc2nc2ccccc12 | > 79.4 µM | 71.9 µM | > 100 µM | > 86.7 µM | 44.9 µM | > 100 µM | > 100 µM | > 100 µM | > 100 µM | > 100 µM | – | – | – | – | – | – | – | – | – | –
COc1cc2cc(Oc3ccc(NC(=O)Nc4cc(C(F)(F)F)cc(C(F)(F)F)c4)cc3)c(C)nc2cc1OCCN1CCCCC1 | 2.99 µM | 4.72 µM | 3.02 µM | 3.35 µM | 3.7 µM | 3.22 µM | 3.57 µM | 3.9 µM | 3.09 µM | 3.18 µM | 1.45 µM | 2.08 µM | 1.63 µM | 1.79 µM | 1.73 µM | 1.68 µM | 1.85 µM | 2.04 µM | 1.62 µM | 1.71 µM
O=C(Nc1ccc(I)cc1F)c1cc(F)ccc1O | 2.31 µM | 0.888 µM | > 100 µM | > 27.7 µM | 2.59 µM | 3.77 µM | 1.92 µM | 2.59 µM | > 27.1 µM | > 100 µM | 0.225 µM | 0.253 µM | 4.04 µM | 0.456 µM | 0.611 µM | 0.354 µM | 0.367 µM | 0.465 µM | 0.499 µM | 0.406 µM
CC(=O)O[C@H]1Cc2c([nH]c3ccccc23)[C@@H](c2ccc(Cl)cc2)N1C(=O)CCNC(C)(C)C | 7.52 µM | 13.6 µM | 8.54 µM | 10.4 µM | 8.99 µM | 8.54 µM | 9.88 µM | 8.97 µM | 8.32 µM | 9.06 µM | 1.64 µM | 2.83 µM | 4.24 µM | 4.26 µM | 2.16 µM | 4.24 µM | 4.93 µM | 4.53 µM | 4.05 µM | 4.64 µM
O=C1c2ccccc2-c2c1c1ccccc1c(=O)n2CCCNCCO | 5.68 µM | 1.76 µM | 7.27 µM | 1.56 µM | 0.522 µM | 6.25 µM | 6.15 µM | 14.4 µM | 6.13 µM | 6.73 µM | 1.43 µM | 0.241 µM | 1.05 µM | 0.111 µM | 0.0879 µM | 0.454 µM | 2.84 µM | 2.1 µM | 0.554 µM | 0.813 µM
COC(=O)C1=C(C)NC(C)=C(C(=O)OC)C1c1ccccc1[N+](=O)[O-] | > 100 µM | > 100 µM | > 100 µM | > 100 µM | > 100 µM | > 100 µM | > 100 µM | > 100 µM | > 100 µM | > 100 µM | 27 µM | 47.6 µM | > 100 µM | 97.6 µM | 78.2 µM | 82.2 µM | > 100 µM | > 100 µM | 65.8 µM | > 100 µM
CCN(CC)CCn1nc2c3c(cccc3c1=O)-c1ccccc1-2 | 11.1 µM | 24.2 µM | > 50 µM | > 50 µM | 8.46 µM | > 50 µM | 13 µM | > 50 µM | 13.3 µM | > 50 µM | 3.27 µM | 3.19 µM | 2.3 µM | 1.49 µM | 1.44 µM | 2.07 µM | 3.79 µM | 2.13 µM | 1.44 µM | 2.63 µM
CCC[CH2][Sn]1([CH2]CCC)[O]N=Cc2ccccc2[O]1 | 1.54 µM | 0.848 µM | 3.08 µM | 2.76 µM | 1.9 µM | 2.54 µM | 1.07 µM | 6.15 µM | 2.04 µM | 2.33 µM | 0.359 µM | 0.231 µM | 1.69 µM | 1.44 µM | 0.335 µM | 1.27 µM | 0.317 µM | 2.96 µM | 0.808 µM | 1.09 µM
Cn1cc(C2=C(c3cccc(Cl)c3)C(=O)NC2=O)c2ccccc21 | > 25 µM | > 25 µM | > 25 µM | > 25 µM | > 25 µM | > 25 µM | > 25 µM | > 25 µM | > 25 µM | > 25 µM | 6.65 µM | > 25 µM | > 25 µM | > 22.7 µM | 15.8 µM | 20.6 µM | > 25 µM | > 25 µM | > 25 µM | > 25 µM
CCOC(=O)Nc1ccc2nc(Sc3ccc(Cl)cc3)sc2c1 | 33.9 µM | 54.8 µM | > 100 µM | > 76.9 µM | > 87.6 µM | > 100 µM | 26.4 µM | > 95 µM | > 87.3 µM | > 100 µM | 2.96 µM | 3.51 µM | 21.6 µM | 1.01 µM | 4.2 µM | 6.49 µM | 2.56 µM | 4.8 µM | 0.632 µM | 7.31 µM
Cc1cncc2cccc(S(=O)(=O)N3CCCNC[C@@H]3C)c12 | 6.52 µM | > 100 µM | > 100 µM | > 100 µM | > 96.3 µM | > 100 µM | > 100 µM | > 100 µM | > 100 µM | > 100 µM | 0.214 µM | 42.8 µM | 17.1 µM | 8.81 µM | 20.7 µM | 24.8 µM | 61 µM | 24 µM | 16.3 µM | 46.2 µM
C/C(=C\COc1ccc2ccc(=O)oc2c1)CCC(=O)C(C)(C)O | > 100 µM | 50 µM | > 100 µM | > 100 µM | 67.5 µM | 58.4 µM | > 100 µM | 99.4 µM | 51.1 µM | > 100 µM | – | – | – | – | – | – | – | – | – | –
S=C1NC2=C(CCOc3c2ccc2ccccc32)C(c2ccc(Cl)cc2)N1 (stereo not given) | > 100 µM | > 100 µM | > 100 µM | > 100 µM | > 100 µM | 66 µM | > 100 µM | > 100 µM | 86 µM | > 100 µM | 84 µM | 25 µM | 73.9 µM | 30.8 µM | 25.2 µM | 25.8 µM | 80.9 µM | > 100 µM | 14.3 µM | 56.4 µM
O=C1NC(=Nc2ccccc2Cl)SC1C(=O)Nc1ccc([N+](=O)[O-])cc1[N+](=O)[O-] (stereo not given) | > 100 µM | > 100 µM | > 100 µM | > 100 µM | > 100 µM | > 100 µM | > 100 µM | > 100 µM | > 100 µM | > 100 µM | – | – | – | – | – | – | – | – | – | –

Source: PubChem BioAssay (NCI)
